Test results reported in patent US4806604A, “Photosensitive calcium chelators” (Regents of the University of California, priority 1987, dated 1989).
Like-named read-outs stand apart in the source and are kept apart here.

How the values were obtained:
[1] = Ca^2+ affinity (dissociation constant) of the chelators; format: binding; conditions: for Ca^2+ affinity (rank in words): conformational explanation of Table I
[2] = Mg^2+ affinity (dissociation constant) of the chelators; format: binding
[3] = Ca^2+:Mg^2+ selectivity (rejection of Mg^2+); format: binding; conditions: 22° C., 0.1M ionic strength
[4] = Release of Ca^2+ after flash photolysis; conditions: after a submillisecond light flash
[5] = EDTA analogs vs EDTA parent; cited from earlier work
[6] = Tsien, 1980; read-out: Kd (Ca^2+); cited from earlier work
[7] = cytosolic free calcium 2+ typical for resting cells; cited from earlier work

SMILES: Cc1ccc(N(CC(=O)O)CC(=O)O)c(O[C@@H]2CCC[C@@H]2Oc2cc(C(=O)c3cc4c(cc3N=O)OCO4)ccc2N(CC(=O)O)CC(=O)O)c1 (relative stereo) [VIII]
- Kd ([1]; after photolysis of nitr-7 to the nitrosobenzophenone, read-out: dissociation constant for Ca^2+ upon photolysis): 3 µM

SMILES: Cc1ccc(N(CC(=O)O)CC(=O)O)c(O[C@@H]2CCC[C@@H]2Oc2ccccc2N(CC(=O)O)CC(=O)O)c1 (relative stereo) [Va]
- Kd ([1]; Table I, Chelator V after saponification, before photolysis, read-out: Kd for Ca^2+): 0.02 µM
- Ca^2+ affinity (rank in words) [1]: highest Ca^2+ affinities
- higher affinity for Ca^2+ than the trans-isomer ([1]; cyclopentanediyl series, cis (Va) vs trans (Vb)): 300 -fold
- Kd ([2]; Table I, Chelator V after saponification, read-out: Kd for Mg^2+): 4200 µM

SMILES: Cc1ccc(N(CC(=O)O)CC(=O)O)c(O[C@H]2CCC[C@H]2Oc2cc(C(O)c3cc4c(cc3[N+](=O)[O-])OCO4)ccc2N(CC(=O)O)CC(=O)O)c1 (relative stereo) [nitr-7, cis-1-(2-bis(carboxymethyl)amino-5-(1-hydroxy-1-(2-nitro-4,5-methylenedioxyphenyl)methyl)phenoxy)-2-(2-bis(carboxymethyl)amino-5-methylphenoxy)cyclopentane]
- Rejection of Mg^2+ [3]: > 10^5
- Kd ([1]; 22° C., 0.1M ionic strength, before photolysis, read-out: dissociation constant for Ca^2+): 0.053 µM
- Ca^2+ affinity (rank in words) [1]: highest Ca^2+ affinities
- exponential time constant of Ca^2+ release [4]: 1.8 millisecond
- Kd ([2]; 22° C., 0.1M ionic strength, read-out: dissociation constant for Mg^2+): 5700 µM

SMILES: O=C(O)CN(CC(=O)O)[C@H]1CCCC[C@@H]1N(CC(=O)O)CC(=O)O (relative stereo) [trans-cyclohexanediyl analog]
- stronger Ca^2+ affinity than the parent [5]: 324 -fold

SMILES: O=C(O)CN(CC(=O)O)[C@H]1CCC[C@@H]1N(CC(=O)O)CC(=O)O (relative stereo) [trans-cyclopentanediyl analog]
- higher affinity for Ca^2+ than the parent [5]: 3.7 -fold

SMILES: O=C(O)CN(CC(=O)O)c1ccccc1OCCOc1ccccc1N(CC(=O)O)CC(=O)O [BAPTA, 1,2-bis(2-aminophenoxy)ethane N,N,N'N'-tetraacetic acid]
- Kd [6]: 0.1 µM

SMILES: O=C(O)CN(CC(=O)O)[C@@H]1CCCC[C@@H]1N(CC(=O)O)CC(=O)O [cis-cyclohexanediyl analog]
- weaker Ca^2+ affinity than the parent [5]: 17 -fold

SMILES: COC(c1ccc(N(CC(=O)O)CC(=O)O)c(OCCOc2cc(C)ccc2N(CC(=O)O)CC(=O)O)c1)c1cc2c(cc1[N+](=O)[O-])OCO2 (stereo not drawn) [nitr-2]
- fraction of unphotolyzed chelator molecules bearing calcium 2+ ions [7]: 1/2
